Assay results: US10226508B2, “Treatment of chronic ulcers” (Promore Pharma AB, priority 2013, dated 2019)
“Also recorded” adds a separate entry of the source. Like-named read-outs stand apart in the source and are kept apart here.

Key:
[1] = tested on: HTH VLUs (hard-to-heal venous leg ulcers); assay: Double-blind, randomised, placebo-controlled Phase I/II safety and pilot-dose response study of LL-37 in HTH VLUs; format: in vivo, human; conditions: for Estimated healing rate constant (cm^2/day) Mean (95% C.I.): 25 μL/cm^2 topical every third day, 4 weeks, exponential decay model, placebo 0.007
Experimental: A double-blind, randomised, placebo-controlled, Phase I/II safety and pilot-dose response study was conducted on human subjects. The first subject was enrolled in August 2012 and the last subject completed in April 2013.
Study subjects comprised either male subjects of at least 18 years of age, or post-menopausal or clinically sterile women, with VLUs or combined venous-arterial ulcers with a predominant venous component.
Target wounds with an area greater than 30 cm^2 and less than 2 cm^2 were excluded initially. However, in order to increase the inclusion rate and decrease the total study time, criteria were amended after randomisation of 21 subjects, to exclude areas greater than 40 cm^2 and less than 1 cm^2. If an eligible subject had more than one wound satisfying the entry criteria, the investigator identified the wound with the most appropriate size, shape and localisation as target wound. Only one wound per subject was treated in the study.
During the 3-week run-in period, subjects received, every third day (±1) and not more than two times per week, six applications (in total) of a placebo preparation (see below) in combination with standard compression bandaging (as defined by the Swedish MPA), comprising elastic bandaging and appropriate dressing to control wound exudation.
If the ulcerative area decrease was greater than between 7% and 13% (depending on size) per week relative to the start of the run-in period, the ulcer was not defined as HTH for the purposes of this study. In such cases, subjects were excluded from the study and the outcome was recorded as screening failure.
After a run-in period, 34 eligible subjects underwent baseline assessments before randomisation to receive active treatment (one of three treatment strengths) or placebo.
Following the above run-in period, a 4-week treatment period was initiated, including 8 visits, an end-of-treatment visit 3 days (±1 day) after the last treatment, and a follow-up visit after an additional 4 weeks (±1 to 7 days).
Subjects were randomised into four treatment groups to receive LL-37 (one of three alternative strengths), or placebo.
Wound bed preparation prior to treatment included debridement of non-viable tissue, treatment of clinical infection and selection of the most appropriate dressing (see below). The wound was cleaned using tap water, gently dried with a gauze pad and, if necessary, curettage was applied prior to application of the trial product or placebo.
0.7 mL of a sterile concentrate of LL-37 in water at concentrations of 2.5, 8 or 16 mg of LL-37 per mL was provided in sealed glass vials (APL, Umeå, Sweden), which were stored prior to the trial at between 2 and 8° C. Immediately before application to the wound, this was diluted with […] of a viscous diluent solution comprising 13.1% (w/w) of polyvinyl alcohol in acetate buffered saline (APL AB) to give final concentrations of either 0.5, 1.6 or 3.2 mg/mL, respectively. Placebo comprised exactly the same solution, but without LL-37 present.
The diluted viscous liquid solution of active treatment or placebo was applied topically at an amount of 25 μL/cm^2 with a 1 mL graded syringe at the centre of the cleansed and dried ulcer, and distributed evenly over the entire ulcer area using the rounded head of the syringe plunger that had been used in mixing the study drug.
After a 5-minute wait (to prevent LL-37 or placebo from being absorbed by the dressing material), the above procedure was followed by application of a dressing and a compression bandage.
The above procedure was repeated every third day (±1) over a 4 week treatment period, not more than two times per week, representing a total of eight applications.
The study assessed the rate of wound healing, pain at wound site both at the time of dressing and over the previous 24 hours using Visual Analogue Scale (VAS). […]

angiogenesis = conditions: synthetic LL-37, subcutaneous injection; Koczulla et al 2003; cited from earlier work
wound healing = conditions: topical treatment; mice treated with a corticosteroid; Ramos et al 2011; cited from earlier work
[2] = tested on: acute wounds of diabetic mice; conditions: cited from earlier work
acute wounds = conditions: synthetic LL-37, repeated topical administration in acute wounds; cited from earlier work

For LL-37, the “wound healing response (conclusion)” value ([1]; LL-37 0.5 mg/mL (13 μg per cm^2 of wound area) every third day) was “marked and significant improvement in wound healing”, the “Estimated healing rate constant (cm^2/day) Mean (95% C.I.)” value ([1]; LL-37 0.5 mg/mL) was 0.039 cm^2/day and the “broken stick analysis: reduction in wound area after randomisation versus run-in” value ([1]; LL-37 0.5 mg/mL, p<0.001, FIG. 1) was “statistically significant improved healing”. The “wound healing response (conclusion)” value ([1]; LL-37 1.6 mg/mL (40 μg per cm^2 of wound area) every third day) was “marked and significant improvement in wound healing”, the “Estimated healing rate constant (cm^2/day) Mean (95% C.I.)” value ([1]; LL-37 1.6 mg/mL) was 0.019 cm^2/day and the “mean reduction in wound area” value ([1]; LL-37 1.6 mg/mL, from randomization to the end of the study) was 5.29 cm^2. The “broken stick analysis: reduction in wound area after randomisation versus run-in” value ([1]; LL-37 1.6 mg/mL, p=0.011, FIG. 1) was “statistically significant improved healing”, the “clinical benefit in chronic ulcers” value ([1]; LL-37 3.2 mg/mL, 80 μg/cm^2 every third day (26.7 μg/cm^2 for each day)) was “do not effectively treat chronic ulcers; also recorded: no clinical benefit” and the “Estimated healing rate constant (cm^2/day) Mean (95% C.I.)” value ([1]; LL-37 3.2 mg/mL) was 0.004 cm^2/day. The “Wound Area (cm^2), Mean ± S.D” value ([1]; Visit 1 (Screening), before treatment, LL-37 0.5 mg/mL group (N = 8)) was 4.59 ± 2.024 cm^2, the “Wound Area (cm^2), Mean ± S.D” value ([1]; Visit 1 (Screening), before treatment, LL-37 1.6 mg/mL group (N = 9)) was 7.84 ± 4.789 cm^2 and the “Wound Area (cm^2), Mean ± S.D” value ([1]; Visit 1 (Screening), before treatment, LL-37 3.2 mg/mL group (N = 8)) was 8.41 ± 6.450 cm^2. The “Wound Area (cm^2), Mean ± S.D” value ([1]; Visit 3 (placebo run-in), LL-37 0.5 mg/mL group (N = 8)) was 4.39 ± 1.995 cm^2, the “Wound Area (cm^2), Mean ± S.D” value ([1]; Visit 3 (placebo run-in), LL-37 1.6 mg/mL group (N = 9)) was 8.14 ± 4.997 cm^2 and the “Wound Area (cm^2), Mean ± S.D” value ([1]; Visit 3 (placebo run-in), LL-37 3.2 mg/mL group (N = 8)) was 7.83 ± 6.163 cm^2. For the same substance, the “Wound Area (cm^2), Mean ± S.D” value ([1]; Visit 6 (Randomisation), baseline, LL-37 0.5 mg/mL group (N = 8)) was 5.11 ± 1.732 cm^2, the “Wound Area (cm^2), Mean ± S.D” value ([1]; Visit 6 (Randomisation), baseline, LL-37 1.6 mg/mL group (N = 9)) was 7.69 ± 4.072 cm^2 and the “Wound Area (cm^2), Mean ± S.D” value ([1]; Visit 6 (Randomisation), baseline, LL-37 3.2 mg/mL group (N = 8)) was 8.50 ± 6.919 cm^2. For the same substance, the “Wound Area (cm^2), Mean ± S.D” value ([1]; Visit 8, LL-37 0.5 mg/mL (N = 8)) was 3.89 ± 1.329 cm^2, the “Wound Area (cm^2), Mean ± S.D” value ([1]; Visit 8, LL-37 1.6 mg/mL (N = 9)) was 5.83 ± 2.156 cm^2 and the “Wound Area (cm^2), Mean ± S.D” value ([1]; Visit 8, LL-37 3.2 mg/mL (N = 8)) was 7.95 ± 6.270 cm^2. For the same substance, the “Wound Area (cm^2), Mean ± S.D” value ([1]; Visit 10, LL-37 0.5 mg/mL (N = 8)) was 3.18 ± 1.549 cm^2, the “Wound Area (cm^2), Mean ± S.D” value ([1]; Visit 10, LL-37 1.6 mg/mL (N = 9)) was 5.34 ± 1.943 cm^2 and the “Wound Area (cm^2), Mean ± S.D” value ([1]; Visit 10, LL-37 3.2 mg/mL (N = 8)) was 7.03 ± 5.063 cm^2. The “Wound Area (cm^2), Mean ± S.D” value ([1]; Visit 12, LL-37 0.5 mg/mL (N = 8)) was 2.26 ± 1.061 cm^2, the “Wound Area (cm^2), Mean ± S.D” value ([1]; Visit 12, LL-37 1.6 mg/mL (N = 9)) was 4.59 ± 2.266 cm^2 and the “Wound Area (cm^2), Mean ± S.D” value ([1]; Visit 12, LL-37 3.2 mg/mL (N = 8)) was 5.93 ± 5.317 cm^2. The “Wound Area (cm^2), Mean ± S.D” value ([1]; Visit 14, LL-37 0.5 mg/mL (N = 8)) was 1.93 ± 1.262 cm^2, the “Wound Area (cm^2), Mean ± S.D” value ([1]; Visit 14, LL-37 1.6 mg/mL (N = 9)) was 3.86 ± 3.029 cm^2 and the “Wound Area (cm^2), Mean ± S.D” value ([1]; Visit 14, LL-37 3.2 mg/mL (N = 8)) was 5.89 ± 4.784 cm^2. For the same substance, the “Wound Area (cm^2), Mean ± S.D” value ([1]; Visit 15 (End of Treatment), LL-37 0.5 mg/mL (N = 8)) was 1.98 ± 1.276 cm^2, the “Wound Area (cm^2), Mean ± S.D” value ([1]; Visit 15 (End of Treatment), LL-37 1.6 mg/mL (N = 9)) was 3.34 ± 3.166 cm^2 and the “Wound Area (cm^2), Mean ± S.D” value ([1]; Visit 15 (End of Treatment), LL-37 3.2 mg/mL (N = 8)) was 5.85 ± 4.648 cm^2. The “Wound Area (cm^2), Mean ± S.D” value ([1]; Visit 16 (End of Study, follow-up approx. 4 weeks after last treatment), LL-37 0.5 mg/mL (N = 8)) was 1.33 ± 1.209 cm^2, the “Wound Area (cm^2), Mean ± S.D” value ([1]; Visit 16 (End of Study, follow-up approx. 4 weeks after last treatment), LL-37 1.6 mg/mL (N = 9)) was 2.40 ± 3.269 cm^2 and the “Wound Area (cm^2), Mean ± S.D” value ([1]; Visit 16 (End of Study, follow-up approx. 4 weeks after last treatment), LL-37 3.2 mg/mL (N = 8)) was 6.19 ± 4.770 cm^2. The “difference of estimated healing rate versus the placebo group” value ([1]; highest dose, LL-37 3.2 mg/mL) was “no statistically significant difference”, the “broken stick analysis: post-randomisation rate versus run-in” value ([1]; highest dose, LL-37 3.2 mg/mL, FIG. 1) was “No significant difference” and the “difference of healing rate constant (exponential decay model) versus the placebo group” value ([1]; intermediate dose, LL-37 1.6 mg/mL, p=0.088) was 3 fold. For the same substance, the “difference of healing rate constant (exponential decay model) versus the placebo group” value ([1]; lowest dose, LL-37 0.5 mg/mL, p=0.003) was 6 fold, the effect on angiogenesis (angiogenesis) was “stimulates angiogenesis” and the “effect on wound healing” value (wound healing) was “stimulated wound healing”. The “effect in acute wounds of diabetic mice” value ([2]; one study, Carretero et al 2008) was “beneficial effect”, the “effect in acute wounds of diabetic mice” value ([2]; other studies, Steinstraesser et al 2012) was “failed to show an effect” and the “effect on inflammatory cells” value (acute wounds) was “attracts inflammatory cells to the surrounding tissue”.
